Values belong to the compound of their own block, whether it stands above or below them. Calls of active or inactive are those of the source. No cut-off for these calls is given here.
Legend:
[1] = target: Receptor tyrosine-protein kinase erbB-2 (Homo sapiens, UniProt P04626); assay: Inhibition of HER2 (unknown origin) incubated for 40 mins by Kinase-Glo Max assay; type: cell-based, Sf9
[2] = Photocytotoxicity against human Lapatinib-resistant MDA-MB-453 assessed as reduction in cell viability incubated for 72 hrs in presence of LED light irradiation of 100 mW/cm2 at 400 to 700 nm by CCK-8 assay; type: functional, cell-based; conditions: Lapatinib-resistant MDA-MB-453, light or radiation study
[3] = Photocytotoxicity against human Lapatinib-resistant MDA-MB-453 assessed as inhibition of cell growth under hypoxic condition incubated for 72 hrs in presence of LED light irradiation of 100 mW/cm2 at 400 to 700 nm by CCK-8 assay; type: functional, cell-based; conditions: Lapatinib-resistant MDA-MB-453, light or radiation study
[4] = tested on: MDA-MB-453; assay: Induction of intracellular ROS generation in human MDA-MB-453 cells assessed as increase in green fluorescence signal at 0.5 uM pretreated for 6 hrs followed by irradiation with 400 to 700 nm 100 mW/cm2 LED light for 10 min by DCFH2-DA staining based flow cytometry analysis; type: functional, cell-based; conditions: time 370.0 min
[5] = target: T1, ErbB-2/ErbB-3 heterodimer (Homo sapiens, UniProt P04626+P21860); assay: Induction of HER2/HER3 degradation in human MDA-MB-453 cells assessed as increase in HER2/HER3 heterodimer incubated for 24 hrs by Co-immunoprecipitation analysis; type: cell-based
T1 sequence (P04626 whole entry): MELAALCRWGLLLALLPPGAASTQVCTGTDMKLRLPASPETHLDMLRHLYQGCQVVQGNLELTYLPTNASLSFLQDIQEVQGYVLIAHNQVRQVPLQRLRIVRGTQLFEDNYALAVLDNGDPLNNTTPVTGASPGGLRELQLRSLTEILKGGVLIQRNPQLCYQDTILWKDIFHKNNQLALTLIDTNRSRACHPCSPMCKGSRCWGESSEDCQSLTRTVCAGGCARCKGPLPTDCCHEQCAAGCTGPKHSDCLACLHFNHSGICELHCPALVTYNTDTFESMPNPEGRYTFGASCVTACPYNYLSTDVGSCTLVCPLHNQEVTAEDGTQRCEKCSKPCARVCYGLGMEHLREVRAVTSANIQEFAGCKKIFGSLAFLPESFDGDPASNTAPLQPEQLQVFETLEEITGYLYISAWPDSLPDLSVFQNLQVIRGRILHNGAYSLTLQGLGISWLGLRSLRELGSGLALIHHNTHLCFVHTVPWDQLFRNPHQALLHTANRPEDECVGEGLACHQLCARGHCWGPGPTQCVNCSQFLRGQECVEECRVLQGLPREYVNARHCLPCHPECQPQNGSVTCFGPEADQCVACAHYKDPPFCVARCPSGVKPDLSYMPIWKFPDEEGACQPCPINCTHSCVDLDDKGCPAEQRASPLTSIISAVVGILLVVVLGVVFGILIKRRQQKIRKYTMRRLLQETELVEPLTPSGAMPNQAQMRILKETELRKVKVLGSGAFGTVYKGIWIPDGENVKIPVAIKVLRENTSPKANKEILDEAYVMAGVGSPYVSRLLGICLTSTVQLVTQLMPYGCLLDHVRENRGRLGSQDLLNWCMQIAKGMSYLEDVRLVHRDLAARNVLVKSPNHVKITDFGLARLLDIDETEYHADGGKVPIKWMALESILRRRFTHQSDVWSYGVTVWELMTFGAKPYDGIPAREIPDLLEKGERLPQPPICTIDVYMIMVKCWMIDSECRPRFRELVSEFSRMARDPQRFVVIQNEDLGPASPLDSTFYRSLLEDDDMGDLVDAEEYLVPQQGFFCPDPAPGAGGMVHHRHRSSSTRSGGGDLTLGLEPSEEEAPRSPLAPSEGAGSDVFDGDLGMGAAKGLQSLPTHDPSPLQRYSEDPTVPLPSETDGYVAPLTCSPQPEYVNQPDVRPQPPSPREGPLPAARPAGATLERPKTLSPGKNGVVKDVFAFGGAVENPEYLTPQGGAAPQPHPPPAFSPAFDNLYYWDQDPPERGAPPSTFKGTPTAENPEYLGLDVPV
T1 sequence (P21860 whole entry): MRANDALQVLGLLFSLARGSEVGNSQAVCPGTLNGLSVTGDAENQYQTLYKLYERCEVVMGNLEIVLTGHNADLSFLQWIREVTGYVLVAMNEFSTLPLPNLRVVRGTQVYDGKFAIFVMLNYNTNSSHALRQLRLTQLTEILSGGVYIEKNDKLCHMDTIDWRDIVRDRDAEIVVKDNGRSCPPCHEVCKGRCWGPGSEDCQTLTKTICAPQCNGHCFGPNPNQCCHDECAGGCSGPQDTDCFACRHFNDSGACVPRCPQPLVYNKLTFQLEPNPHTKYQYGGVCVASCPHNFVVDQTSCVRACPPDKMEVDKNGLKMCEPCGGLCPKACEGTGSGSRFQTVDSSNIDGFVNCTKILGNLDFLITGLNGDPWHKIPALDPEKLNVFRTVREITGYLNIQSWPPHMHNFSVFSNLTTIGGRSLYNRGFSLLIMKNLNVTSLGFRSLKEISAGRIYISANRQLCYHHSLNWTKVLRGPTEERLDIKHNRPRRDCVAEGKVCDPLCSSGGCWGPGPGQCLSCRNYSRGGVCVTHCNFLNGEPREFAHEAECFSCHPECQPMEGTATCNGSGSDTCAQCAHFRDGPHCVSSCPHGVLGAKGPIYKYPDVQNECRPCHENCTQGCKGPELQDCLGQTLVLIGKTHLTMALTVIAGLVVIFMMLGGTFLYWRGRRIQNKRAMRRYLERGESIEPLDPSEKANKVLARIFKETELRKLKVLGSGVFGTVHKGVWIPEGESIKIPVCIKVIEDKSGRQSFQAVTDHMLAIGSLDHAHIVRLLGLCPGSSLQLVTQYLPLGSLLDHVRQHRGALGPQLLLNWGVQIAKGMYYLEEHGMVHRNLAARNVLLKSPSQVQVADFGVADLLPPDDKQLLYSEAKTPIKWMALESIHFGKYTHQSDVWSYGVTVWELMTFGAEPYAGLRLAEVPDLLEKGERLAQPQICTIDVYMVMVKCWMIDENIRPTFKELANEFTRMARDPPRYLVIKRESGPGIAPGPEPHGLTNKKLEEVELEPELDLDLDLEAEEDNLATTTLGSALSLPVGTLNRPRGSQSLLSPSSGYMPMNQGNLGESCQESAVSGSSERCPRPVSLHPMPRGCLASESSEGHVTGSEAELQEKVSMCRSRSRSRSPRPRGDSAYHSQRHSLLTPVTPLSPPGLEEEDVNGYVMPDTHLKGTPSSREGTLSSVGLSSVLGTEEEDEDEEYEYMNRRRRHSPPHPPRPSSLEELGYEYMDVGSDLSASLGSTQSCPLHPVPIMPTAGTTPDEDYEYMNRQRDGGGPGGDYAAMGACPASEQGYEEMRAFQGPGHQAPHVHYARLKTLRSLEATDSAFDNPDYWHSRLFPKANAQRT

[6] = target: T1, ErbB-2/ErbB-3 heterodimer; assay: Induction of HER2/HER3 degradation in human MDA-MB-453 cells assessed as decrease in HER2/HER3 heterodimer preincubated for 24 hrs followed by irradiation with 400 to 700 nm 100 mW/cm2 LED light for 10 min by Co-Immunoprecipitation Analysis; type: cell-based; conditions: time 1450.0 min
[7] = target: T1, ErbB-2/ErbB-3 heterodimer; assay: Induction of HER2/HER3 degradation in human MDA-MB-453 cells assessed as HER2 degradation preincubated for 24 hrs followed by irradiation with 400 to 700 nm 100 mW/cm2 LED light for 10 min by Western blot analysis; type: cell-based
[8] = target: T1, ErbB-2/ErbB-3 heterodimer; assay: Induction of HER2/HER3 degradation in human MDA-MB-453 cells assessed as HER3 degradation preincubated for 24 hrs followed by irradiation with 400 to 700 nm 100 mW/cm2 LED light for 10 min by Western blot analysis; type: cell-based
[9] = target: Serine/threonine-protein kinase AKT (Homo sapiens) (UniProt P31751+Q9Y243+P31749); assay: Inhibition of AKT phosphorylation in human MDA-MB-453 cells at 0.5 uM preincubated for 24 hrs followed by irradiation with 400 to 700 nm 100 mW/cm2 LED light for 10 min by Western blot analysis; type: cell-based; conditions: time 1450.0 min
[10] = target: Mitogen-activated protein kinase; ERK1/ERK2 (Homo sapiens) (UniProt P27361+P28482); assay: Inhibition of Erk1/2 phosphorylation in human MDA-MB-453 cells at 0.5 uM preincubated for 24 hrs followed by irradiation with 400 to 700 nm 100 mW/cm2 LED light for 10 min by Western blot analysis; type: cell-based; conditions: time 1450.0 min
Mitogen-activated protein kinase; ERK1/ERK2 (Homo sapiens), sequence (P27361 whole entry, looked up): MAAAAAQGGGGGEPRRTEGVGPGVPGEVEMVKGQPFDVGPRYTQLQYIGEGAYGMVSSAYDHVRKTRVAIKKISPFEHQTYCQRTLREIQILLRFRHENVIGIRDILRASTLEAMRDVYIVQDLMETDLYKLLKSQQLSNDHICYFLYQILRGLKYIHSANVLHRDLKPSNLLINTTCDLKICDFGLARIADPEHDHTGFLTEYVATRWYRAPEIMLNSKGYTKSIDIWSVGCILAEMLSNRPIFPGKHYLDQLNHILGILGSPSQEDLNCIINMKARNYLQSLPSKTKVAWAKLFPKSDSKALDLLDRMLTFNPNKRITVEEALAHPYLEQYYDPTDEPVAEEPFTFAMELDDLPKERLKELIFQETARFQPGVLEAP
Mitogen-activated protein kinase; ERK1/ERK2 (Homo sapiens), sequence (P28482 whole entry, looked up): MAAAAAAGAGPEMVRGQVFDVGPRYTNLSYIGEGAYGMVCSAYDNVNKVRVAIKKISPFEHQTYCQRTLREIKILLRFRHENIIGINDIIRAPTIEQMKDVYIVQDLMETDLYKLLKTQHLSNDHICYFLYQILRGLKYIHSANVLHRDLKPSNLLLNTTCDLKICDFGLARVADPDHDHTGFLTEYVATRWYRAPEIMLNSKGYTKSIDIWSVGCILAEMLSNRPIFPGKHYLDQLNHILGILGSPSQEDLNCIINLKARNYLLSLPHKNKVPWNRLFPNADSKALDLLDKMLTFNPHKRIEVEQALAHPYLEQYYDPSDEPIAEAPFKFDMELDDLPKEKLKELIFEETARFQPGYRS

[11] = tested on: MDA-MB-453; assay: Induction of apoptosis in human MDA-MB-453 cells assessed as increase in cleaved caspase-3 expression at 0.5 uM preincubated for 24 hrs followed by irradiation with 400 to 700 nm 100 mW/cm2 LED light for 10 min by Western blot analysis; type: functional, cell-based; conditions: time 1450.0 min
[12] = tested on: MDA-MB-453; assay: Induction of apoptosis in human MDA-MB-453 cells assessed as decrease in Bcl-2 expression at 0.5 uM preincubated for 24 hrs followed by irradiation with 400 to 700 nm 100 mW/cm2 LED light for 10 min by Western blot analysis; type: functional, cell-based; conditions: time 1450.0 min
[13] = tested on: MDA-MB-453; assay: Induction of apoptosis in human MDA-MB-453 cells assessed as increase in BAX/Bcl-2 ratio at 0.5 uM preincubated for 24 hrs followed by irradiation with 400 to 700 nm 100 mW/cm2 LED light for 10 min by Western blot analysis; type: functional, cell-based; conditions: time 1450.0 min
[14] = tested on: MDA-MB-453; assay: Photocytotoxicity against human MDA-MB-453 cells cultured as 3D spheroids assessed as reduction in diameter of tumor spheroid size at 0.5 to 10 uM pretreated with compound for 10 mins and measured after 72 hrs in presence of 400 to 700 nm 100 mW/cm2 LED light by bright-field microscopic analysis; type: functional, cell-based; conditions: dose 0.5-10 µM, time 4330.0 min
[15] = tested on: MDA-MB-453; assay: Photocytotoxicity against human MDA-MB-453 cells cultured as 3D spheroids assessed as reduction in diameter of tumor spheroid size at 0.5 to 10 uM incubated for 72 hrs by bright-field microscopic analysis; type: functional, cell-based; conditions: dose 0.5-10 µM
[16] = tested on: MDA-MB-453; assay: Photocytotoxicity against human MDA-MB-453 cells cultured as 3D spheroids assessed as reduction in cell density at 0.5 to 10 uM incubated for 72 hrs by bright-field microscopic analysis; type: functional, cell-based; conditions: dose 0.5-10 µM
[17] = tested on: MDA-MB-453; assay: Photocytotoxicity against human MDA-MB-453 cells cultured as 3D spheroids assessed as reduction in cell viability incubated for 72 hrs by CCK-8 assay; type: functional, cell-based; conditions: MDA-MB-453, 72 h
[18] = tested on: MDA-MB-453; assay: Photocytotoxicity against human MDA-MB-453 cells cultured as 3D spheroids assessed as reduction in cell viability pretreated for 10 mins and measured after 72 hrs in presence of 400 to 700 nm 100 mW/cm2 LED light by CCK-8 assay; type: functional, cell-based
[19] = tested on: MDA-MB-453; assay: Photocytotoxicity against human MDA-MB-453 cells cultured as 3D spheroids assessed as increase in dead cells by measuring red fluorescence intensity pretreated with compound for 10 mins and measured after 72 hrs in presence of 400 to 700 nm […] LED light by calcein-AM/PI staining based fluorescence analysis; type: functional, cell-based; conditions: time 4330.0 min
[20] = tested on: MDA-MB-453; assay: Induction of intracellular ROS generation in human MDA-MB-453 cells assessed as increase in green fluorescence signal at […] pretreated for 6 hrs followed by irradiation with 400 to 700 nm 100 mW/cm2 LED light for 10 min by DCFH2-DA staining based flow cytometry analysis; type: functional, cell-based; conditions: time 370.0 min
[21] = Photocytotoxicity against human Lapatinib-resistant MDA-MB-453 cells assessed as reduction in cell viability by CCK-8 assay; type: functional, cell-based

Receptor tyrosine-protein kinase erbB-2, sequence (P04626 whole entry): as the sequence (P04626 whole entry) above

IC50 [1]: 105 nM | Activity [5]: inactive | Activity [6]: Active | DC50 [7]: 520 nM | Activity ([7]; time 1450.0 min): Dose-Dependent Effect | DC50 [8]: 584 nM | inhibition [9]: Active | inhibition [10]: Active
Compound: CC[n+]1c(/C=C/c2ccc(-c3ccc4ncnc(Nc5ccc(OCc6cccc(F)c6)c(Cl)c5)c4c3)s2)sc2ccccc21
IC50 [2]: 226 nM | IC50 [3]: 585 nM | Activity [4]: Active | Activity [11]: Active | Activity [12]: Active | Activity [13]: Active | Activity [14]: Active | Activity [15]: inactive | Activity [16]: inactive | IC50 [17]: > 20000 nM | IC50 [18]: 2130 nM | Activity [19]: Active

Compound: O=S(=O)(O)c1cc(O)c(O)c(S(=O)(=O)O)c1
Activity [20]: Active

Compound: CS(=O)(=O)CCNCc1ccc(-c2ccc3ncnc(Nc4ccc(OCc5cccc(F)c5)c(Cl)c4)c3c2)o1 [LAPATINIB]
IC50 [21]: > 5000 nM | IC50 [17]: > 20000 nM

IC50 [1]: 50 nM
Compound: CC[n+]1c(/C=C/c2ccc(-c3ccc4ncnc(Nc5ccc(OCc6cccc(F)c6)c(Cl)c5)c4c3)o2)sc2ccccc21
IC50 [2]: 1560 nM

From ChEMBL document CHEMBL5360595, “Ligand-Directed Photodegradation of Interacting Proteins: Oxidative HER2/HER3 Heterodimer Degradation with a Lapatinib-Derived Photosensitizer” (J Med Chem, 2023)
